“And” between values parts separate entries of the source, which are not always exact repeats. Equal values may be shown once. “Also recorded” adds a separate entry of the source.
Biological target: T1, GLUT4 (Homo sapiens, UniProt P14672)
T1 construct: expressed in transfected cells; host or cells: Saccharomyces cerevisiae hxt0 strain SDY.022 (EBY.S7 Δerg4)
T1 sequence (P14672 1-509): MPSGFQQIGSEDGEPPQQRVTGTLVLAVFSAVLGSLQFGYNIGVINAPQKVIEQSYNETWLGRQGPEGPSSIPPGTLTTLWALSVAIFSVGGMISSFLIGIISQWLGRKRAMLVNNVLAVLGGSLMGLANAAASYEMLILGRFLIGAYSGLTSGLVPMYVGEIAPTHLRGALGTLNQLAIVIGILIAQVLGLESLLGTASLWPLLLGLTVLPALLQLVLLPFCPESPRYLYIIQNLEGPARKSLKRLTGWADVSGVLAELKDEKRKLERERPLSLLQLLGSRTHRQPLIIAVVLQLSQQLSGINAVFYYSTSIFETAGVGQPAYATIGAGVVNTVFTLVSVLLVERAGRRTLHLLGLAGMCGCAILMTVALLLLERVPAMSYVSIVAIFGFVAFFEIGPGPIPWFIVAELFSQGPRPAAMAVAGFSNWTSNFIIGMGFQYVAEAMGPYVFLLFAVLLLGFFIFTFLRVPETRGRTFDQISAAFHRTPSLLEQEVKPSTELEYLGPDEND
Experiment: Glucose transport assay, GLUT4 expressed in hxt^0 yeast cells SDY.022
Format: cell-based
Conditions: for IC50: hxt^0 yeast cells, 5 mM glucose, read-out: IC50 for GLUT4 transport inhibition; for Potency for GLUT4 relative to GLUT3 (higher for GLUT4): IC50 GLUT4 versus IC50 GLUT3
Description: The most studied GLUTs are Class 1 GLUTs (GLUT1-4) and a Class 2 GLUT, GLUT5 (a fructose-only transporter). GLUT3 sequence homology and identity is 79% and 64%, 71% and 52%, 74% and 57%, and 60% and 38% with GLUT1, GLUT2, GLUT4, and GLUT5, respectively. The hxt^0 yeast cell systems expressing functional GLUT1-4[65],[69] and GLUT5[66] allow us to determine the in vivo transport activity (substrate uptake by a GLUT into whole cells) for individual GLUTs and establish GLUT3 inhibitor selectivity for these transporters. The transport assay was performed as described for GLUT3, but at the substrate concentrations that correspond to the KM for each GLUT (i.e., 5 mM glucose for GLUT1 and GLUT4[65], 15 mM glucose for GLUT2∆loopS_Q455R[63], and 10 mM fructose for GLUT5S72Y[66]).
The transport activity was assayed as the substrate uptake in hexose transporter-deficient yeast cells expressing functional GLUT1[65], GLUT2[69], GLUT4[65], or GLUT5[66]. Substrate final concentration in the assay matched the corresponding substrate KM and was 5 mM glucose for GLUT1 and GLUT4, 15 mM glucose for GLUT2∆loopS_Q455R, and 10 mM fructose for GLUT5S72Y. Transport assay was initiated by the addition of C^14-labeled substrate and stopped after 10 min (see “Materials and methods” for details). […] Standard deviations for experimental points come from at least three independent measurements.
The plasmids containing functional constructs of GLUT1-5 were transformed in the corresponding hxt^0 strains[65],[66],[73] (EBY.VW4000 for GLUT5S72Y, EBY.S7 for GLUT1, GLUT2∆loopS_Q455R, GLUT3 and GLUT3S66Y, and SDY.022 for GLUT4) and grown on 2% (w/v) agar plates of the respective media supplemented with 1% (w/v) maltose. An initial culture of ~ 10 ml was started with a few colonies and grown for 2–3 days if the media was SC-uracil with 1% (w/v) maltose (GLUT1, GLUT3, GLUT4) or 1–2 days if the media was YEP with 1% (w/v) maltose and 100 µg/ml geneticin G418 (GLUT2∆loopS_Q455R and GLUT5S72Y). Cells were washed once in the corresponding media in which maltose was substituted with 0.1–2% hexose substrate for the expressing GLUT (i.e., SC-uracil, 2% (w/v) glucose for GLUT1; SC-uracil, 0.2% (w/v/) glucose for GLUT3 and GLUT4; YEP, 0.2% (w/v) glucose, 100 µg/ml geneticin G418 for GLUT2∆loopS_Q455R, and YEP, 2% (w/v) fructose for GLUT5 S72Y). Then, cells were transferred in the same media so that OD600nm ~ 0.5 and grown further for 1–2 days.
For transport activity assay, cells in the hexose media were centrifuged (1000×g, 5 min, room temperature), washed once with PBS buffer (10 mM Na2HPO4, 1.8 mM KH2PO4, 2.7 mM KCl, 137 mM NaCl, pH 7.4), and resuspended in PBS buffer at an OD600nm ~ 10; each assay contained 100 µl of this cell solution. Transport activity assay was started by adding C^14-hexose at a substrate concentration corresponding to the respective KM (5 mM glucose for GLUT1 or GLUT4, 3 mM glucose for GLUT3 or 1.5 mM glucose for GLUT3S66Y, 15 mM glucose for GLUT2∆loopS_Q455R, and 10 mM fructose for GLUT5S72Y); for determining the glucose KM in GLUT3 and GLUT3S66Y, substrate concentrations were varied accordingly. […] The filtration membranes were transferred into scintillation vials with 10 ml of Scintillation Solution (BioSafeII; Research Products International, Mount Prospect, IL, USA), and vortexed briefly. The radioactivity was determined with a scintillation counter (Tri-carb 2900TR, Perkin Elmer, USA).

Row | Structure (SMILES) | IC50 [µM] | Ki (2.5, 5 and 10 mM glucose, 0, 4 and 8 µM G3iD, read-out: Ki for GLUT4 inhibition (Dixon plot)) | Inhibition mode in GLUT4 (Dixon plot, versus glucose) | Potency for GLUT4 relative to GLUT3 (higher for GLUT4)
1 | COc1ccccc1-n1c(/C=C/c2ccc(O)cc2)nc2ccc(Br)cc2c1=O [G3iB, 6-bromo-2-[(E)-2-(4-hydroxyphenyl)ethenyl]-3-(2-methoxyphenyl)quinazolin-4(3H)-one] | 12.7 ± 2.3 |  |  | 
2 | Cc1cc(NC(=O)CCC2Cc3ccccc3NC2=O)nc(-c2ccccc2)n1 (stereo not shown) [G3iD] | 3.88 ± 0.57 | 2.65 µM and ~2.7 µM | competitive with glucose; also recorded: competitive inhibitor; also recorded: competitive inhibition mode | ~ fivefold
3 | O=C(Nc1cccc(Cl)c1)c1cccc(NC(=O)c2cccc([N+](=O)[O-])c2)c1 [G3iE, N-{3-[(3-chloroanilino)carbonyl]phenyl}-3-nitrobenzamide] | 12.4 ± 2.5 |  |  | 
4 | Cc1cccnc1OC1CCN(c2cc(N3CCCC3CO)ncn2)CC1 (stereo not shown) [G3iC] | 25.6 ± 6.6 |  |  | 
5 | Cc1ccccc1CN(Cc1nnc(C(C)(C)C)o1)c1ccc2nc(O)[nH]c2c1 [G3iF] | 6.94 ± 1.37 |  |  | ~ fivefold
6 | CC(=O)Nc1ccc(S(=O)(=O)Nc2ccc(Nc3cc(N(C)C)nc(C)n3)cc2)cc1 [G3iA, N-(4-{[(4-{[6-(dimethylamino)-2-methylpyrimidin-4-yl]amino}phenyl)amino]sulfonyl}phenyl)acetamide] | > 50 |  |  | 
